Source: patent US9284531B2, “Differentiation of human pluripotent stem cells into cells expressing mature hepatocyte markers by 2D and bioreactor culture” (Takara Bio Europe AB, priority 2009, dated 2016)

Columns and labels:
CYP3A4 = experiment: CYP P450 activity test in bioreactor cultures (midazolam to 1'OH midazolam); conditions: both bioreactors HepDiff-1 and HepDiff-2, days 40 and 47, 3 μM at start
Method: (§1) Bioreactor cultures that were treated with the hepatic differentiation protocol were tested or their ability to metabolize phenacetin, diclophenac and midazolam via the phase I cytochrome (CYP) P450 enzymes CYP1A2, CYP2C9 and CYP3A4, respectively. At days 40 and 47 after inoculation of the cells a CYP P450 activity test was performed according to the scheme:
(§2) For this purpose, fresh medium inflow and medium outflow was closed and a cocktail of the test substances was injected into the recirculating medium to get the following concentrations at the beginning of the test: 3 μM Midazolam, 9 μM Diclophenac and 26 μM Phenacetin. During the next 24 hours, the bioreactor was operated in recirculation mode (no fresh medium was added and only the medium recirculation pump recirculates the medium). Samples from the recirculation were taken before starting the experiment and after 1, 4, 8 and 24 hours and analyzed for the metabolites of the test substances by liquid chromatography/mass spectrometry (LC/MS). Analyses were performed at Astrazeneca AB, Gothenburg, Sweden. After the last sample was taken the bioreactor was flushed with fresh medium in single pass mode with two times the volume of the bioreactor and tubing system and then switched to the normal perfusion mode recirculation with fresh medium inflow). […]

CYP1A2 = experiment: CYP P450 activity test in bioreactor cultures (phenacetin to acetaminophen); format: in vitro ADME, human; conditions: bioreactors HepDiff-1 and HepDiff-2, hESC-derived cells, 26 μM at start, 24 h recirculation, LC/MS
Method: as §1, §2

HFF = HFF feeder cell experiments in 2D cultures and bioreactors (activin A production, proliferation); format: cell-based, human
Method: The metabolic activity and differentiation of the cells inside the bioreactors were characterized on a daily basis by measuring soluble factors in the medium outflow and in the recirculating medium. The following parameters were measured using automated clinical chemistry analyzers (Roche Diagnostics, Heidelberg, Germany): α-fetoprotein (AFP), alkaline phosphatase (AP), alanine transaminase (ALT), aspartate transaminase (AST), beta-human chorionic gonadotropin (β-hCG), c-peptide, carcinoembryonic antigen (CEA), cytokeratin fragment 19 (Cyfra 21-1), erythropoetin, estradiol, follicle stimulating hormone (FSH), factors II-V-X-XIII, fibrinogen, gamma-glutamyltransferase (GGT), glucose, lactate, lactate dehydrogenase (LDH), luteinizing hormone, neuronspecific enolase (NSE), osmolality, osteocalcin, pseudocholinesterase (PCHE), prealbumin progesterone, prolactin, S-100, thyroid-stimulating hormone (TSH), tissue plasminogen activator (TPA), transferrin (for a detailed description of the measurement methods see Table 8 in appendix). Additionally glutamine, glutamate, glucose, lactate, ammonium, pH, sodium (Na+), potassium (K+) were measured with a BioProfile 100 Plus device (Nova Biomedical, Waltham, Mass., USA). Activin A, insulin and albumin were measured with enzyme-linked immunosorbent assays (ELISAs) following the manufacturer's recommendations (activin A using products DY338, DY999, DY994, DY995 from R&D Systems, Wiesbaden-Nordenstadt, Germany; insulin using an ELISA from Invitrogen; albumin using an ELISA from Albuwell, Exocell Inc., Philadelphia, Pa., USA). Urea was measured using a colorimetric determination kit (QuantiChrom, BioAssay Systems, Hayward, Calif., USA). Galactose and sorbitol concentrations were measured by enzymatic assays (Roche Diagnostics).
The pluripotency supporting activity of the HFF could be correlated with their production of activin A. To further examine the behaviour of the HFF feeder cells several experiments only with HFF were carried out in 2D cultures and in two bioreactors.
In one experiment, the bioreactor is inoculated with active HFF that will be cultured in medium supplemented with serum and bFGF to stimulate HFF proliferation. Increase of the cell number is monitored by the levels of glucose consumption and lactate production. When a sufficient cell number is reached culture medium is changed to hBS medium for conditioning. Optimal medium exchange rates have to be determined for example measuring activin A and glucose concentrations in the conditioned medium as quality control parameters. A low glucose level might indicate the demand for increasing the medium feed rate and a low activin A level might be a sign for insufficient conditioning unsuitable to promote hESC pluripotency.

## Cc1ncc2n1-c1ccc(Cl)cc1C(c1ccccc1F)=NC2 [midazolam, Midazolam]
CYP3A4
  metabolism of midazolam: no metabolism

## CCOc1ccc(NC(C)=O)cc1 [phenacetin, Phenacetin]
CYP1A2
  metabolism of phenacetin by CYP1A1/1A2: Significant metabolism

## basic fibroblast growth factor [bFGF]
HFF; bioreactor experiment HFF-2, medium supplemented with serum replacement
  mitogenic effect on HFF: not observed
HFF; medium containing serum replacer
  activin A production by HFF: stimulated
HFF; medium supplemented with serum
  activin A production by HFF: did not stimulate
HFF; medium supplemented with serum, 2D and bioreactor experiment HFF-1
  mitogenic effect on active HFF: strong mitogenic effect
